Test results taken from ChEMBL document CHEMBL1157539, “Thousands of chemical starting points for antimalarial lead identification” (Nature, 2010).

System: Plasmodium falciparum
Assay: GSK_TCMDC: Inhibition of Plasmodium falciparum 3D7 in whole erythrocytes, using parasite LDH activity as an index of growth.
Format: functional, organism-based
Details: Plasmodium falciparum, 3D7

SMILES | XC50 [µM]
CCOC(=O)CCCOc1cc(Cc2cnc(N)nc2N)cc(OC)c1OC | 0.239
Cc1cc(CNCCCCCNCc2ccc(Cl)cc2)ccc1O | 0.706
Fc1ccc2[nH]c(-c3cccc(-c4cccc(CN5CCN(c6cnccn6)CC5)c4)c3)nc2c1 | 1.06
O=C(NCCCCN1CCC(c2nc3ccccc3s2)CC1)c1cc2ccccc2[nH]1 | 1.02
O=C(/C=C/c1ccc(Cl)c(Cl)c1)N1CCC(CCN2CCC(c3c[nH]c4cnccc34)CC2)CC1 | 0.119
Oc1ccc(Cl)c2c1C(c1ccccc1)=NCC2 | 0.54
Cc1sc2ncnc(Sc3nnc(N)s3)c2c1C | 0.399
COc1ccc2nccc(N3CCN(CCNCc4ccc5c(n4)NC(=O)CO5)CC3)c2c1 | 1.16
COc1ccc(O)c(C(=O)c2cc(C#N)c(=O)n(-c3ccc(Oc4ccccc4)cc3)c2)c1 | 0.737
CCN(C)c1cc(C(=O)N[C@@H](Cc2ccccc2)[C@H](O)CNC(C)(C)c2cccc(OC)c2)cc(N2CCCC2=O)c1 | 0.073
N=C(N)Nc1nc(-c2cccc(NC(=O)NCC(c3ccccc3)c3ccccc3)c2)cs1 | 0.791
COc1cc2nc(N(C)C3CCN(Cc4ccccc4)CC3)nc(N)c2cc1OC | 0.334
COc1ccc(-c2cccc(NC(=O)c3cccc(Cl)c3)c2)cc1CNC(C)C | 0.721
COc1ccc(CN2CCC(CN3CC4(OC3=O)c3ccccc3-c3ccccc34)C2)c(O)c1 (stereo unspecified) | 0.613
CC1CCN(CC[C@H]2CCCN2S(=O)(=O)c2cccc(NC(=O)Nc3ccc(C(F)(F)F)cc3)c2)CC1 | 0.722
OC(CNCc1ccco1)Cn1c2ccc(Br)cc2c2cc(Br)ccc21 (stereo unspecified) | 1.07
COc1ccc(Nc2nc(C)cc(NC3CCCC3)n2)cc1 | 0.872
NC(=O)C1CCN(Cc2cccc(-c3cccc(-c4nc5cc(C(F)(F)F)ccc5[nH]4)c3)c2)CC1 | 0.641
CC(C)(C)c1ccc(N2C(N)=NC(N)=NC2(C)C)cc1Cl | 0.00656
CC(=O)C1=NN(c2ccc(C)cc2)C(c2cccs2)N1c1ccccc1 (stereo unspecified) | 0.338
COc1ccccc1-n1c(SCC(=O)c2ccc3c(c2)CC(=O)N3C)nnc1-c1cccs1 | 0.963
Cc1cc(NC(=O)Nc2cccc(C#N)c2)c2ccccc2n1 | 0.581
COc1ccc2ccccc2c1CCCCN1CCN(CC(c2ccc(F)cc2)N2CCN(C3CCCC3)CC2)CC1 (stereo unspecified) | 0.772
CC(=O)Oc1cc(C)ccc1C1CCN(CCCCNC(=O)c2ccc(-c3ccc(C(F)(F)F)cc3)cc2)CC1 | 0.646

SMILES | XC50 [µM]
OC(CN1CCN(Cc2ccccc2)CC1)Cn1c(-c2ccccc2)c(-c2ccccc2)c2ccccc21 (stereo unspecified) | 0.711
O=C(N[C@@H](CC1CCCCC1)C(=O)NCCN1CCCCC1)c1ccc(O)c(-c2cccc(C(F)(F)F)c2)c1 | 0.831
CC(C)(CNC(=O)[C@H]1CCCN1)c1nc(-c2ccc(Cl)c(O)c2)c(-c2ccncc2)[nH]1 | 1.27
Cc1cc(N(C)C2CCN(C)CC2)nc(Nc2ccc(Cl)cc2)n1 | 0.29
O=C(/C=C/c1ccc(Cl)c(Cl)c1)N1CCC2CC(N3CCC(c4c[nH]c5ccccc45)CC3)CCC2C1 (stereo unspecified) | 0.171
COC(=O)c1cccc(CNCc2cccc(-c3cccc(-c4nc5ccccc5[nH]4)c3)c2)c1 | 0.504
CC(C)Oc1ccccc1-c1csc(C(=O)NCC2CCN(Cc3ccc(C(C)(C)C)cc3)C2)c1 (stereo unspecified) | 1.07
Cc1cc(N2CCCC2)nc(Nc2ccc(NC(=O)C(C)(C)C)cc2)n1 | 1.07
CN1CCN(CC(=O)Nc2ccc(-c3csc(-c4nc5ccccc5[nH]4)c3)cc2)CC1 | 1.56
NCC1CCCN1Cc1ccc(-c2ccc(-c3nc4cc(C(F)(F)F)ccc4[nH]3)cc2)cc1 (stereo unspecified) | 0.959
O=C1CCCN1CCCNCc1ccc(-c2ccc(-c3nc4cc(F)ccc4[nH]3)cc2)cc1 | 0.603
Brc1cc(CNCCCNc2nc3ccccc3[nH]2)sc1Br | 0.221
Cc1cc(NC(=O)CCN2CCN(c3cccc(Cl)c3Cl)CC2)ccc1N1CCN(C(C)C)CC1 | 0.847
C[C@H](Cc1ccc(OCCCCCCOc2ccccc2)cc1)NC[C@@H](O)c1cc(Br)no1 | 0.883
CC[C@H]1CN(Cc2ccco2)CC[C@H]1CCCc1ccnc2ccc(O)cc12 | 1.27
O=S(=O)(c1ccc2ccccc2c1)N1CCCN(Cc2ccc(OCCCN3CCCCC3)cc2)CC1 | 1.1
Cc1nn(C2CCS(=O)(=O)C2)c(C)c1C1Nc2ccccc2C(=O)N1Cc1ccc2c(c1)OCO2 (stereo unspecified) | 0.511
CCn1ccc2c(N3CCCCS3(=O)=O)cc(C(=O)N[C@@H](Cc3ccccc3)[C@H](O)CNC(C)(C)CCCC(C)C)cc21 | 0.418
CC(C)(C)OC(=O)[C@H](CC(N)=O)NC(=O)c1ccc(-c2ccc(-c3nc4cc(C(F)(F)F)ccc4[nH]3)s2)cc1 | 0.271
C=C[C@]1(C)C[C@@H](OC(=O)NC(=O)C2CCN(C(=O)CSc3ccccc3)CC2)[C@]2(C)[C@H](C)CC[C@]3(CCC(=O)[C@H]32)[C@@H](C)[C@@H]1O | 1.01
O=C(Nc1ccc([N+](=O)[O-])cc1)Nc1nc2ccc(Cl)cc2s1 | 0.837
O=C(C=Cc1cccs1)Nc1ccc(-c2nc3ccccc3[nH]2)cc1 | 1.14
COc1ccc2ncc(F)c(CCN3CC[C@@H](CNCc4ccc5c(c4C)OCCO5)C3)c2n1 | 1.03
CC[C@H]1CN2CC[C@H]1C[C@H]2[C@H](O)c1cc(Cl)nc2ccc(OC)cc12 | 0.578

SMILES | XC50 [µM]
COC(=O)c1cccc(CNCc2ccc(-c3cccc(-c4nc5cccc(C)c5[nH]4)c3)cc2)c1 | 0.306
Cc1cc(-c2cccc(CNC3CCCC3)c2)ccc1S(=O)(=O)NCCN1CCCC1 | 1.24
COc1ccc2nccc([C@@H](O)CN3CCC(NCc4ccc5c(c4)NC(=O)CS5)CC3)c2c1 | 0.567
CCOc1ccccc1NC(=O)Nc1ccc2c(c1)CCN(C1CCC1)CC2 | 1.11
COc1cccc(Nc2nc(C)cc(NCc3ccc(-c4c(C)noc4C)cc3)n2)c1 | 0.88
CC[C@H]1CN2CC[C@@H]1C[C@H]2[C@H](O)c1cc(-c2ccccc2)nc2ccc(O)cc12 | 0.189
CCCC(CNCc1cccc(OC(F)(F)F)c1)CNc1cc(=O)c2ccccc2[nH]1 (stereo unspecified) | 0.556
Cc1[nH]cc(Br)c(=O)c1-c1ccc(Oc2ccccc2)cc1 | 0.678
CN1CCN(c2ccc(Nc3c(C(N)=O)cnc4cc(-c5ccoc5)ccc34)cc2)CC1 | 0.806
COc1ccc(NC(=O)CCNc2cc(C)nc(NCCc3ccc(F)cc3)n2)cc1 | 0.848
CCOC(C(=O)OCC1CCCN(C)C1)(c1ccccc1)c1ccccc1 (stereo unspecified) | 0.868
CN1CCN(Cc2ccc(-c3ccc4ncnc(Nc5ccc(OCc6ccccc6)cc5)c4c3)o2)CC1 | 0.689
CN(C)c1ccc(-c2csc(C(=O)NC3CCCCN(Cc4ccc(C(C)(C)C)cc4)C3)c2)cc1 (stereo unspecified) | 1.11
CCOc1ccc(Br)cc1/C=C/C(=O)Nc1ccc(C2CCN(C)CC2)cc1 | 0.45
N#Cc1cccc(NC(=O)Nc2ccc(CC(=O)N3CCc4cc(Cl)c(N5CCN(C/C=C/c6ccccc6)CC5)cc43)cc2)c1 | 0.875
COc1ccc2c(c1)S(=O)(=O)N=C(N1CCCC1c1ccc(Cl)c(Cl)c1)N2C (stereo unspecified) | 1.28
COc1cc(Nc2nccc(Nc3ccc4c(C)n[nH]c4c3)n2)cc2ccccc12 | 0.699
CCCCC(=O)Nc1nc2ccc([N+](=O)[O-])cc2s1 | 0.756
CSc1nc2nc(C)c(Cc3cccc(F)c3)c(C)n2n1 | 0.904
CCOC(=O)N/N=C/[C@H](CCc1ccccc1)NC(=O)[C@H](CC(C)C)NC(=O)c1cc2cccc(OC)c2o1 | 0.88
COc1ccc(CNCCc2cccs2)cc1-c1ccc(OC)c(S(=O)(=O)NCCN2CCCC2)c1 | 1.41
c1ccc(CCNCc2ccc(-c3cccc(CNc4ccc5ncccc5c4)c3)cc2)cc1 | 0.926
CC(C)COc1ccc(Cl)cc1Cc1ccc(-c2nc3cnc4ccccc4c3[nH]2)o1 | 1.26
C=C[C@]1(C)C[C@@H](OC(=O)c2cncn(COC)c2=O)[C@]2(C)[C@H](C)CC[C@]3(CCC(=O)[C@H]32)[C@@H](C)[C@@H]1O | 0.878

SMILES | XC50 [µM]
Cc1cc2nc(-c3ccc(/C=C/C(=O)NCc4ccc(Cl)c(Cl)c4)cc3)[nH]c2cc1C | 0.824
COc1cc2nc(NCCc3cccc(Cl)c3)nc(NCc3ccccc3)c2cc1OC | 0.124
N=C1NC(c2ccccc2)(c2ccccc2)C(=O)N1CC=Cc1ccccc1 | 0.598
COc1ccccc1CCNc1nc(C)cc(N[C@@H](CC(C)C)C(=O)NCc2cccc(F)c2)n1 | 0.973
CC1CCCCN1Cc1cccc(-c2c[nH]c3nc(NC4CCCC4)ncc23)c1 (stereo unspecified) | 1.31
CC=CC(=O)N1CCN(c2nccc(-c3ccc(C(C)(C)C)cc3)n2)CC1 | 1.08
CC(=O)Nc1nc(C(=O)Nc2ccc(-c3cccc(-c4nc5cc(C(F)(F)F)ccc5[nH]4)c3)cc2)cs1 | 0.184
COc1ccc(-c2csc3ncnc(Cl)c23)cc1 | 0.781
COc1cc(C2=NN(S(=O)(=O)c3c(Cl)cc(Cl)cc3Cl)CCCC2)ccc1Cl | 0.291
CCCCNC(=N)c1ccc(OCCCCCOc2ccc(C(=N)NCCCC)cc2)cc1 | 0.114
COc1cccc(-c2csc(C(=O)NCC3CCN(Cc4ccc(C(C)C)cc4)C3)c2)c1 (stereo unspecified) | 1.39
Cc1cccc2nc(-c3cccc(-c4cccc(CNCc5cnn(-c6ccccc6)n5)c4)c3)[nH]c12 | 0.663
COc1ccc(CNCCc2cccs2)cc1-c1cccc(S(=O)(=O)NCCN2CCCC2)c1 | 0.877
COc1ccc(NC(=O)[C@H](CC(C)C)Nc2cc(C)nc(NCC3CCCCC3)n2)cc1 | 1.1
CC(C)(C)CCN1CCC(CNC(=O)c2cc(-c3cccc(Cl)c3)cs2)C1 (stereo unspecified) | 0.819
CCCCCCCN(CCCCCCC)CCCC(=O)Nc1ccnc2ccc(OC)cc12 | 0.154
COc1cc(C)nc2ccc(NC(=O)Nc3ccc4nc(C)cc(OC)c4c3)cc12 | 0.548
Cc1ccc(O)cc1Nc1ccnc2cc(-c3cccc(CNCCS(C)(=O)=O)c3)ccc12 | 0.836
Cc1ccc(Cc2c[nH]c(NCCSCc3ccc(CN(C)C)s3)nc2=O)cn1 | 0.86
NCCCCNc1cc(-c2ccnc(Nc3cccc(Cl)c3)n2)ccn1 | 0.284
CCC1CN(S(=O)(=O)c2ccc3c(c2)NC(=O)CC(=O)N3)c2cc(Cl)ccc2O1 (stereo unspecified) | 0.656
CCCN(c1ccc(C(F)(F)F)cc1[N+](=O)[O-])S(=O)(=O)C(c1ccccc1)c1ccc(C(F)(F)F)cc1[N+](=O)[O-] (stereo unspecified) | 1.22
CCN(CCCN1CCCCC1)c1cc(C)nc(Nc2ccc(C(C)C)cc2)n1 | 0.543
O=C(CCc1c[nH]cn1)Nc1cccc(-c2cccc(-c3nc4ccccc4[nH]3)c2)c1 | 0.66
